The results in this text go back to US12509454B2, “Thiadiazolyl derivatives” (IDEAYA Biosciences, Inc., priority 2019, dated 2025).

The target of the assay is Pol theta (1-899) (Homo sapiens (Human), UniProt O75417). Briefly: Pol theta ATPase activity, NADH oxidation-coupled enzymatic assay. The format is biochemical. As to conditions: Pol theta (1-899) 10 nM, ATP, dT50 ssDNA, absorbance 340 nm, 10-point dilution series; read-out: ATPase NADH coupling:Standard Screening:hPolQ IC50. In a few lines:
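Pol theta (1-899), 10 nM, preincubated 15 min at RT with 10-point compound series in Tris pH 7.80/KCl/MgCl2 buffer, then given 100 μM ATP plus 300 nM dT50 ssDNA with PK/LDH-coupled NADH oxidation. A340 followed for 30 min; rate slopes fitted with a four-parameter model for IC50.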

Chain of Pol theta (1-899) (O75417 1-899): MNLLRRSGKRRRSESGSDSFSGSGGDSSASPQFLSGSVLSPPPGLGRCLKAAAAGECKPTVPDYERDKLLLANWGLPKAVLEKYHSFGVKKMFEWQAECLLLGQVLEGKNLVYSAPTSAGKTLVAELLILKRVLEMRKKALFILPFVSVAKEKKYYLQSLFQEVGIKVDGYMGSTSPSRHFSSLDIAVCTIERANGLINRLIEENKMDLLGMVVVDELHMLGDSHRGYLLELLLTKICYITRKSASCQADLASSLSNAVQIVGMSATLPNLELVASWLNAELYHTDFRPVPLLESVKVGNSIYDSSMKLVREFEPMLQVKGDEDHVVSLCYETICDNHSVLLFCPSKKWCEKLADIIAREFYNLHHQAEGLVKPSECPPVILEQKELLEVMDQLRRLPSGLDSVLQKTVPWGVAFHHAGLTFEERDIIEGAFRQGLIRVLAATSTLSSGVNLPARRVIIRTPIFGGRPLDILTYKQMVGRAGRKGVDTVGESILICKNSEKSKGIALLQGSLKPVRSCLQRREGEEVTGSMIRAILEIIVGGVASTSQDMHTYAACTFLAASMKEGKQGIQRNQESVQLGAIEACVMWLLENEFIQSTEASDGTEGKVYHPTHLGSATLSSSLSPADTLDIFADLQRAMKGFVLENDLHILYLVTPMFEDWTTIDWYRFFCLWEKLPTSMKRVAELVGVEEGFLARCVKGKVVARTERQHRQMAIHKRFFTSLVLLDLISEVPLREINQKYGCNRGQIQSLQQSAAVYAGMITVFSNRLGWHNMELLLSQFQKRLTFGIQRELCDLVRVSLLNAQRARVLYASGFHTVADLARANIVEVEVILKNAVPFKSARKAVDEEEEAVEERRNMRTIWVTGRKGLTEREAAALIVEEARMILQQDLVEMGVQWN

As for `O=C(Nc1nnc(OCc2ccc(Cl)cn2)s1)c1ccncc1N1CCOC2(CC2)C1` [Example 173, N-[5-[(5-chloropyridin-2-yl)methoxy]-1,3,4-thiadiazol-2-yl]-3-[4-oxa-7-azaspiro[2.5]octan-7-yl]pyridine-4-carboxamide], the IC50 – broadly, the concentration that gives 50% inhibition – was 200 to 500 nM.
As for `O=C(Nc1nnc(OCc2ccc(Cl)cc2)s1)c1ccncc1-c1cccc2c1OCCN2` [Example 136, N-[5-[(4-chlorophenyl)methoxy]-1,3,4-thiadiazol-2-yl]-3-(3,4-dihydro-2H-1,4-benzoxazin-8-yl)pyridine-4-carboxamide], the figure is not above 200 nM; as for `COc1ncccc1-c1ccncc1C(=O)Nc1nnc(OCc2ccc(Cl)cc2)s1` [Example 129, N-(5-((4-chlorobenzyl)oxy)-1,3,4-thiadiazol-2-yl)-2-methoxy-[3,4′-bipyridine]-3′-carboxamide], 200 to 500 nM; as for `COc1ccccc1-c1cnccc1C(=O)Nc1nnc(OCc2ccc(Cl)c3[nH]ncc23)s1` [Example 107, N-(5-((7-chloro-1H-indazol-4-yl)methoxy)-1,3,4-thiadiazol-2-yl)-3-(2-methoxyphenyl)isonicotinamide], not above 200 nM.
As for `COc1ccccc1-c1cnccc1C(=O)Nc1nnc(OCc2cccc3[nH]cnc23)s1` [Example 145, N-[5-(1H-1,3-benzodiazol-4-ylmethoxy)-1,3,4-thiadiazol-2-yl]-3-(2-methoxyphenyl)pyridine-4-carboxamide], the figure is not above 200 nM; as for `O=C(Nc1nnc(OCc2ccc(Cl)cc2)s1)c1cncn1-c1ccccc1` [Example 4, N-(5-((4-chlorobenzyl)oxy)-1,3,4-thiadiazol-2-yl)-1-phenyl-1H-imidazole-5-carboxamide], 500 to 1000 nM; as for `O=C(Nc1nnc(OCc2ccc(Cl)cc2)s1)c1cncn1-c1ccncc1` [Example 18, N-(5-((4-chlorobenzyl)oxy)-1,3,4-thiadiazol-2-yl)-1-(pyridin-4-yl)-1H-imidazole-5-carboxamide], 500 to 1000 nM.
As for `N#Cc1ccc(C(=O)Nc2nnc(OCc3ccc(Cl)cc3)s2)c(N2CCOCC2)n1` [Example 14, N-(5-((4-chlorobenzyl)oxy)-1,3,4-thiadiazol-2-yl)-6-cyano-2-morpholinonicotinamide], the IC50 was not above 200 nM.
`COc1ccc(C#N)cc1-c1cc(C)ncc1C(=O)Nc1nnc(OCc2ccc(Cl)cn2)s1` [Example 117, N-[5-[(5-chloropyridin-2-yl)methoxy]-1,3,4-thiadiazol-2-yl]-4-(5-cyano-2-methoxyphenyl)-6-methylpyridine-3-carboxamide]: the IC50 was not above 200 nM.
The figure for `COc1ccccc1-c1cc(CO)ncc1C(=O)Nc1nnc(OCc2ccc(Cl)cn2)s1` [Example 170, N-[5-[(5-chloropyridin-2-yl)methoxy]-1,3,4-thiadiazol-2-yl]-6-(hydroxymethyl)-4-(2-methoxyphenyl)pyridine-3-carboxamide] is not above 200 nM; for `O=C(Nc1nnc(OCc2ccc(Cl)cc2)s1)c1cccnc1N1CCOC2(CC2)C1` [Example 30, N-(5-((4-chlorobenzyl)oxy)-1,3,4-thiadiazol-2-yl)-2-(4-oxa-7-azaspiro[2.5]octan-7-yl)nicotinamide] it is not above 200 nM.
In the case of `O=C(Nc1nnc(OCc2ccc(Cl)cc2)s1)c1ccncc1N1C2CCC1COC2` [Example 176, N-[5-[(4-chlorophenyl)methoxy]-1,3,4-thiadiazol-2-yl]-3-[3-oxa-8-azabicyclo[3.2.1]octan-8-yl]pyridine-4-carboxamide], the IC50 is not above 200 nM.
On to `O=C(Nc1nnc(OCc2ccc(Cl)cc2)s1)c1cccnc1-c1ccccc1Cl` [Example 150, N-(5-((4-chlorobenzyl)oxy)-1,3,4-thiadiazol-2-yl)-2-(2-chlorophenyl)nicotinamide], for which the IC50 was 200 to 500 nM.
For the compound `COc1cc(N2CCOCC2)c(C(=O)Nc2nnc(OCc3ccc(Cl)cn3)s2)cn1` [Example 36, N-(5-((5-chloropyridin-2-yl)methoxy)-1,3,4-thiadiazol-2-yl)-6-methoxy-4-morpholinonicotinamide], the half-maximal inhibitory concentration (IC50) lay within 1000 to 10000 nM.
For `CN(C)C(=O)N1CCN(c2ncccc2C(=O)Nc2nnc(OCc3ccc(Cl)cc3)s2)CC1` [Example 28, 4-(3-((5-((4-chlorobenzyl)oxy)-1,3,4-thiadiazol-2-yl)carbamoyl)pyridin-2-yl)-N,N-dimethylpiperazine-1-carboxamide], the IC50 lay within 1000 to 10000 nM.
In the case of `Cn1cc(-c2ncccc2C(=O)Nc2nnc(OCc3ccc(Cl)cc3)s2)ccc1=O` [Example 80, N-(5-((4-chlorobenzyl)oxy)-1,3,4-thiadiazol-2-yl)-1′-methyl-6′-oxo-1′,6′-dihydro-[2,3′-bipyridine]-3-carboxamide], the IC50 was in the range of 200 to 500 nM.
As for `COc1ccccc1-c1cc(C#N)ncc1C(=O)Nc1nnc(OCc2ccc(Cl)cn2)s1` [Example 96, N-(5-((5-chloropyridin-2-yl)methoxy)-1,3,4-thiadiazol-2-yl)-6-cyano-4-(2-methoxyphenyl)nicotinamide], the IC50 was not above 200 nM.
As for `O=C(Nc1nnc(OCc2ccc(Cl)cc2)s1)c1ccncc1-c1c(F)cccc1OC1COC1` [Example 143, N-(5-((4-chlorobenzyl)oxy)-1,3,4-thiadiazol-2-yl)-3-(2-fluoro-6-(oxetan-3-yloxy)phenyl)isonicotinamide], the figure is not above 200 nM.
Regarding `COc1ccccc1-c1ccncc1C(=O)Nc1nnc(OCc2ccc(Cl)cn2)s1` [Example 89, N-(5-((5-chloropyridin-2-yl)methoxy)-1,3,4-thiadiazol-2-yl)-4-(2-methoxyphenyl)nicotinamide], the IC50 is not above 200 nM.
The figure for `COc1ccccc1-c1cc2cnnn2cc1C(=O)Nc1nnc(OCc2ccc(Cl)cn2)s1` [Example 223, N-[5-[(5-chloropyridin-2-yl)methoxy]-1,3,4-thiadiazol-2-yl]-5-(2-methoxyphenyl)-[1,2,3]triazolo[1,5-a]pyridine-6-carboxamide] is not above 200 nM; for `O=C(Nc1nnc(OCc2ccc(Cl)cc2)s1)c1ccncc1-c1cccc2c1OC(F)(F)O2` [Example 121, N-(5-((4-chlorobenzyl)oxy)-1,3,4-thiadiazol-2-yl)-3-(2,2-difluorobenzo[d][1,3]dioxol-4-yl)isonicotinamide] it is not above 200 nM; for `O=C(Nc1nnc(OCc2ccc(Cl)cn2)s1)c1cncn1-c1ccccc1OC(F)F` [Example 168, N-[5-[(5-chloropyridin-2-yl)methoxy]-1,3,4-thiadiazol-2-yl]-3-[2-(difluoromethoxy)phenyl]imidazole-4-carboxamide] it is not above 200 nM.
As to `COc1ccccc1-c1cnccc1C(=O)Nc1nnc(OCc2ccc(Cl)cn2)s1` [Example 99, N-[5-[(5-chloropyridin-2-yl)methoxy]-1,3,4-thiadiazol-2-yl]-3-(2-methoxyphenyl)pyridine-4-carboxamide], the IC50 is not above 200 nM.
Take `O=C1CN(c2ncccc2C(=O)Nc2nnc(OCc3ccc(Cl)cc3)s2)CCCN1` [Example 63, N-(5-((4-chlorobenzyl)oxy)-1,3,4-thiadiazol-2-yl)-2-(3-oxo-1,4-diazepan-1-yl)nicotinamide]: the IC50 is 1000 to 10000 nM.
As for `Cc1cc(-c2ccccc2OC(F)F)c(C(=O)Nc2nnc(OCc3ccc(Cl)cn3)s2)cn1` [Example 115, N-[5-[(5-chloropyridin-2-yl)methoxy]-1,3,4-thiadiazol-2-yl]-4-[2-(difluoromethoxy)phenyl]-6-methylpyridine-3-carboxamide], the IC50 is not above 200 nM.
For the compound `CN1CCN(c2ncccc2C(=O)Nc2nnc(OCc3ccc(Cl)cc3)s2)CC1=O` [Example 45, N-[5-[(4-chlorophenyl)methoxy]-1,3,4-thiadiazol-2-yl]-2-(4-methyl-3-oxopiperazin-1-yl)pyridine-3-carboxamide], the concentration for half-maximal inhibition (IC50) is 500 to 1000 nM.
As for `COc1ccccc1-c1cn2ccnc2cc1C(=O)Nc1nnc(OCc2ccc(Cl)cc2)s1` [Example 161, N-(5-((4-chlorobenzyl)oxy)-1,3,4-thiadiazol-2-yl)-6-(2-methoxyphenyl)imidazo[1,2-a]pyridine-7-carboxamide], the figure is not above 200 nM; as for `O=C(Nc1nnc(OCc2ccc(C3COC3)cc2)s1)c1cccnc1N1CCOCC1` [Example 56, 2-morpholino-N-(5-((4-(oxetan-3-yl)benzyl)oxy)-1,3,4-thiadiazol-2-yl)nicotinamide], 1000 to 10000 nM; as for `N#Cc1ccc(C(=O)Nc2nnc(OCc3ccc(Cl)cc3)s2)c(N2CCNC(=O)C2)n1` [Example 76, N-(5-((4-chlorobenzyl)oxy)-1,3,4-thiadiazol-2-yl)-6-cyano-2-(3-oxopiperazin-1-yl)nicotinamide], not above 200 nM.
Take `O=C(Nc1nnc(OCc2ccc(Cl)cc2)s1)c1cccnc1-c1ccccc1` [Example 94, N-(5-((4-chlorobenzyl)oxy)-1,3,4-thiadiazol-2-yl)-2-phenylnicotinamide]: the 50% inhibitory concentration (IC50) lay in the range of 1000 to 10000 nM.
`O=C(Nc1nnc(OCc2ccc(Cl)cc2)s1)c1ccncc1-c1ccccc1CCO` [Example 171, N-(5-((4-chlorobenzyl)oxy)-1,3,4-thiadiazol-2-yl)-3-(2-(2-hydroxyethyl)phenyl)isonicotinamide]: the IC50 is not above 200 nM.
As for `O=C(Nc1nnc(OCc2ccc(Cl)cn2)s1)c1cccnc1N1CCOCC1` [Example 3], the half-inhibitory concentration (IC50) was 1000 to 10000 nM.
`O=C(Nc1nnc(OCc2ccc(Cl)cn2)s1)c1ccnn1-c1ccccc1` [Example 24, N-(5-((5-chloropyridin-2-yl)methoxy)-1,3,4-thiadiazol-2-yl)-1-phenyl-1H-pyrazole-5-carboxamide]: the IC50 is 1000 to 10000 nM.
As for `O=C(Nc1nnc(OCc2ccc(Cl)cc2)s1)c1ccc(Br)nc1N1CCOCC1` [Example 58, 6-bromo-N-(5-((4-chlorobenzyl)oxy)-1,3,4-thiadiazol-2-yl)-2-morpholinonicotinamide], the figure is 500 to 1000 nM.
As for `COc1ccccc1-c1cnccc1C(=O)Nc1nnc(OCc2cccc(Cl)c2)s1` [Example 157, N-(5-((3-chlorobenzyl)oxy)-1,3,4-thiadiazol-2-yl)-3-(2-methoxyphenyl)isonicotinamide], the IC50 is not above 200 nM.
